Measurements from the NIST ThermoML archive (doi:10.1016/j.tca.2006.05.016).

Tests used:
[1] = Crystal 2; Adiabatic calorimetry
[2] = Molar enthalpy of transition or fusion; details: Crystal 2; Adiabatic calorimetry
[3] = molar heat capacity at constant pressure; details: 101.33 kPa, Vacuum adiabatic calorimetry

O.O=C([O-])[C@H](O)[C@@H](O)CO.[Na+] [sodium (2R,3S)-2,3,4-trihydroxybutanoate hydrate]
Details	Molar enthalpy of transition or fusion [kcal/mol]	Triple point temperature [K]
[1]	–	311.4
[2]	1.37	–

[3]
Details	molar heat capacity at constant pressure [J/K/mol]
77.95 K, Crystal 2	75
79.37 K, Crystal 2	76.72
81.36 K, Crystal 2	79.56
83.91 K, Crystal 2	84.79
86.36 K, Crystal 2	87.68
88.76 K, Crystal 2	90.45
91.09 K, Crystal 2	93.27
93.36 K, Crystal 2	96.08
95.59 K, Crystal 2	98.2
97.78 K, Crystal 2	100.57
99.92 K, Crystal 2	102.71
102.04 K, Crystal 2	105.14
104.12 K, Crystal 2	107.69
106.16 K, Crystal 2	109.95
108.18 K, Crystal 2	111.9
110.17 K, Crystal 2	113.31
112.13 K, Crystal 2	114.95
114.07 K, Crystal 2	116.19
115.97 K, Crystal 2	117.54
117.86 K, Crystal 2	118.71
119.77 K, Crystal 2	120.32
121.62 K, Crystal 2	121.99
123.51 K, Crystal 2	123.24
125.33 K, Crystal 2	124.71
127.14 K, Crystal 2	125.29
128.86 K, Crystal 2	126.35
130.68 K, Crystal 2	127.87
132.5 K, Crystal 2	128.63
134.24 K, Crystal 2	131.67
135.97 K, Crystal 2	132.68
137.73 K, Crystal 2	133.19
139.48 K, Crystal 2	134.44
141.23 K, Crystal 2	136.19
142.86 K, Crystal 2	137.59
144.61 K, Crystal 2	138.32
146.3 K, Crystal 2	140.73
147.99 K, Crystal 2	140.29
149.61 K, Crystal 2	141.98
151.3 K, Crystal 2	143.95
152.96 K, Crystal 2	145.69
154.61 K, Crystal 2	147.47
156.3 K, Crystal 2	148.86
157.86 K, Crystal 2	150.83
159.54 K, Crystal 2	152.22
161.17 K, Crystal 2	153.62
162.73 K, Crystal 2	154.86
164.35 K, Crystal 2	156.25
165.91 K, Crystal 2	156.39
167.53 K, Crystal 2	158.29
169.09 K, Crystal 2	159.91
172.12 K, Crystal 2	160.63
176.29 K, Crystal 2	162.82
180.3 K, Crystal 2	165.02
184.22 K, Crystal 2	166.35
188.18 K, Crystal 2	168.27
191.97 K, Crystal 2	170.46
195.83 K, Crystal 2	171.25
199.61 K, Crystal 2	172.21
203.33 K, Crystal 2	173.89
207.04 K, Crystal 2	175.99
210.68 K, Crystal 2	177.22
214.32 K, Crystal 2	179.68
217.96 K, Crystal 2	181.35
221.51 K, Crystal 2	183.72
225 K, Crystal 2	185.96
228.51 K, Crystal 2	187.72
231.95 K, Crystal 2	189.41
235.39 K, Crystal 2	192.26
238.79 K, Crystal 2	194.53
242.04 K, Crystal 2	198.57
245.39 K, Crystal 2	201.48
248.7 K, Crystal 2	203.61
252.08 K, Crystal 2	206.16
255.46 K, Crystal 2	208.87
258.7 K, Crystal 2	210.99
262.01 K, Crystal 2	212.53
265.32 K, Crystal 2	215.68
268.57 K, Crystal 2	217.65
271.77 K, Crystal 2	220.53
275 K, Crystal 2	224.17
278.12 K, Crystal 2	228.04
281.3 K, Crystal 2	231.99
284.42 K, Crystal 2	237.12
287.53 K, Crystal 2	241.14
290.52 K, Crystal 2	246.12
293.51 K, Crystal 2	256.15
296.36 K, Crystal 2	269.06
299.17 K, Crystal 2	287.71
301.89 K, Crystal 2	317.39
304.46 K, Crystal 2	360.73
306.87 K, Crystal 2	401.98
309.17 K, Crystal 2	438.39
311.36 K, Crystal 2	491.36
318.51 K, Crystal 1	314.18
320.91 K, Crystal 1	318.35
323.31 K, Crystal 1	325.56
325.78 K, Crystal 1	328.61
328.18 K, Crystal 1	335.06
330.58 K, Crystal 1	339.72
332.99 K, Crystal 1	345.04
335.32 K, Crystal 1	351.32
337.66 K, Crystal 1	358.41
340.01 K, Crystal 1	364.19
342.27 K, Crystal 1	369.83
344.55 K, Crystal 1	376.43
346.82 K, Crystal 1	381.43
349.03 K, Crystal 1	386.89
351.17 K, Crystal 1	394.15
353.25 K, Crystal 1	400.12
355.33 K, Crystal 1	406.54
357.27 K, Crystal 1	412.66
359.16 K, Crystal 1	419.26
360.91 K, Crystal 1	423.77
362.53 K, Crystal 1	426.99
364.09 K, Crystal 1	434.07
365.32 K, Crystal 1	439.39
366.56 K, Crystal 1	441.96
367.66 K, Crystal 1	446.63
368.51 K, Crystal 1	453.39
